Data taken from article PMC11079024, “Identification of a family of species-selective complex I inhibitors as potential anthelmintics” (Nature Communications, 2024).

Tested on: ben-1 mutant (ECA882) C. elegans
Experiment: microbe, parasite or virus in culture
Settings: Caenorhabditis elegans, read-out: C. elegans (ben-1) Development & Viability Assay LC50
In short: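 Development and viability scored from single well images as total worm pixels divided by the matching DMSO control value, mean of ≥3 replicates. Worms added as synchronized L1s to HB101 suspension in liquid NGM with compound (1% DMSO v/v), grown 6 days at 20 °C with shaking.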

In order of falling LC50:
1. CCCOc1ccc(Cn2cnc3ccccc32)cc1 [Compound 7355741]  85.3 µM
2. Cc1ccccc1OCCCCn1cnc2ccccc21 [Compound 7732524]  58.5 µM
3. Cc1nc2ccccc2n1Cc1ccc(Br)cc1 [Compound 5567167]  11.2 µM

Same assay, conditions: Caenorhabditis elegans, read-out: C. elegans ben-1(e1880) development/viability

For `Cc1ccccc1OCCCCn1cnc2ccccc21` [Compound 7732524], the viability at 15.6 µM was 100%.

Compound `Cc1ccccc1OCCCCn1cnc2ccccc21` [Compound 7732524] has a viability at 31.3 µM of 97%.

For `Cc1ccccc1OCCCCn1cnc2ccccc21` [Compound 7732524], the viability at 62.5 µM was 42.4%.

With `Cc1ccccc1OCCCCn1cnc2ccccc21` [Compound 7732524] the viability at 125 µM was 3.7%.

In the case of `Cc1ccccc1OCCCCn1cnc2ccccc21` [Compound 7732524], the viability at 250 µM is reported as 3.3%.

For `Cc1ccccc1OCCCCn1cnc2ccccc21` [Compound 7732524], the viability at 500 µM was 1.6%.

In the case of `Cc1ccccc1OCCCCn1cnc2ccccc21` [Compound 7732524], the viability at 1000 µM is reported as 1.3%.

Same assay, conditions: Caenorhabditis elegans, read-out: C. elegans ben-1 log10 LC50 (converted)

In order of rising LC50:
1. Cc1nc2ccccc2n1Cc1ccc(Br)cc1 [Compound 5567167]  11.2 µM
2. Cc1ccccc1OCCCCn1cnc2ccccc21 [Compound 7732524]  58.5 µM
3. CCCOc1ccc(Cn2cnc3ccccc32)cc1 [Compound 7355741]  85.3 µM

Tested on: L1 wild-type C. elegans
Experiment: microbe, parasite or virus in culture
Settings: Caenorhabditis elegans, read-out: C. elegans KCN Survival Assay LC50, estimated from fitted dose-response curves; mean of at least two biological replicates

In order of rising LC50:
1. Cc1nc2ccccc2n1Cc1ccc(Br)cc1 [Compound 5567167]  1.34 µM
2. Cc1ccccc1OCCCCn1cnc2ccccc21 [Compound 7732524]  6.37 µM
3. CCCOc1ccc(Cn2cnc3ccccc32)cc1 [Compound 7355741]  7 µM

Target: B. taurus (heart) complex I (Bos taurus, UniProt P03887+P17694+P42026)
Experiment: biochemical
Type: biochemical
Settings: B. taurus heart mitochondria; estimated from fitted dose-response curves; read-out: B. taurus Complex I IC50
In short: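 Complex I activity followed as DCIP reduction (600 nm, 30 s reads, 15 min) with 80 μM NADH and 60 μM decylubiquinone in 25 mM KPi pH 7.5 containing 2 μM antimycin A and 2 mM KCN. Freeze-thawed mouse or bovine heart mitochondria at 0.2 mg/mL; initial-rate percent of solvent control, single-point 100 μM or dose-response.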

Chain of B. taurus (heart) complex I (P03887 whole entry): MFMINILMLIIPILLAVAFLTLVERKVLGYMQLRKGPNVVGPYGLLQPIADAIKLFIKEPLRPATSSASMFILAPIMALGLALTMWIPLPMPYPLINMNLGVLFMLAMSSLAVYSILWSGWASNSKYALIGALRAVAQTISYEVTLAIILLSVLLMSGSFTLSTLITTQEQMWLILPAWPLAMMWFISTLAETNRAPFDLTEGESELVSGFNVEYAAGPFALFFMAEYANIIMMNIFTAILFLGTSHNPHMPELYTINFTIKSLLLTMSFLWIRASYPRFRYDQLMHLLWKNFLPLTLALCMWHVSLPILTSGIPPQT
Chain of B. taurus (heart) complex I (P17694 34-463): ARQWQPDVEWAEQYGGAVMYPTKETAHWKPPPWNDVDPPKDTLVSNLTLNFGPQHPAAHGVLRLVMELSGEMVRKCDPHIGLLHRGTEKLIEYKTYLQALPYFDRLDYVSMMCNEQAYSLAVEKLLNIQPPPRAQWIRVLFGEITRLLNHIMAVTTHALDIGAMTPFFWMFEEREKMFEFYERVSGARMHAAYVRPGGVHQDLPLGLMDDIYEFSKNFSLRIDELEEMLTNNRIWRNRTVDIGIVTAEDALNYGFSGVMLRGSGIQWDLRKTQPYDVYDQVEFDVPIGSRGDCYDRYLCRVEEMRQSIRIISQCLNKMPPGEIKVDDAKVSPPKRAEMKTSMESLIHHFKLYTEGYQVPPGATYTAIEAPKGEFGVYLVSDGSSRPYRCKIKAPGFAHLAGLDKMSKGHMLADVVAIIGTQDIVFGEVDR
Chain of B. taurus (heart) complex I (P42026 38-216): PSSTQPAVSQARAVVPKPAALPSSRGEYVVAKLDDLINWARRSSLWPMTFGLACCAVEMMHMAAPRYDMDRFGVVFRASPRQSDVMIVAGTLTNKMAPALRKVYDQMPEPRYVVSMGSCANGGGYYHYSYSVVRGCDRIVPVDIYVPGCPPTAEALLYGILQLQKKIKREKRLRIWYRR

In order of falling IC50:
1. CCCOc1ccc(Cn2cnc3ccccc32)cc1 [Compound 7355741]  3.07 µM
2. Cc1ccccc1OCCCCn1cnc2ccccc21 [Compound 7732524]  0.31 µM
3. Cc1nc2ccccc2n1Cc1ccc(Br)cc1 [Compound 5567167]  0.209 µM

Same assay, conditions: Dose 0.0001 µM; read-out: B. taurus mitochondrial complex I activity

In order of rising activity at 0.0001 µM:
1. CCCOc1ccc(Cn2cnc3ccccc32)cc1 [Compound 7355741]  95.3%
2. Cc1ccccc1OCCCCn1cnc2ccccc21 [Compound 7732524]  96.6%

Same assay, conditions: Dose 0.0005 µM; read-out: B. taurus mitochondrial complex I activity

In order of rising activity at 0.0005 µM:
1. CCCOc1ccc(Cn2cnc3ccccc32)cc1 [Compound 7355741]  97.8%
2. Cc1ccccc1OCCCCn1cnc2ccccc21 [Compound 7732524]  102%

Same assay, conditions: Dose 0.001 µM; read-out: B. taurus mitochondrial complex I activity

In order of falling activity at 0.001 µM:
1. CCCOc1ccc(Cn2cnc3ccccc32)cc1 [Compound 7355741]  102%
2. Cc1ccccc1OCCCCn1cnc2ccccc21 [Compound 7732524]  97%

Same assay, conditions: Dose 0.0025 µM; read-out: B. taurus mitochondrial complex I activity

In order of rising activity at 0.0025 µM:
1. Cc1ccccc1OCCCCn1cnc2ccccc21 [Compound 7732524]  93.8%
2. CCCOc1ccc(Cn2cnc3ccccc32)cc1 [Compound 7355741]  105%

Same assay, conditions: Dose 0.005 µM; read-out: B. taurus mitochondrial complex I activity

In order of falling activity at 0.005 µM:
1. CCCOc1ccc(Cn2cnc3ccccc32)cc1 [Compound 7355741]  102%
2. Cc1ccccc1OCCCCn1cnc2ccccc21 [Compound 7732524]  78.2%

Same assay, conditions: Dose 0.013 µM; read-out: B. taurus mitochondrial complex I activity

In order of falling activity at 0.013 µM:
1. CCCOc1ccc(Cn2cnc3ccccc32)cc1 [Compound 7355741]  104%
2. Cc1ccccc1OCCCCn1cnc2ccccc21 [Compound 7732524]  91.3%

Same assay, conditions: Dose 0.025 µM; read-out: B. taurus mitochondrial complex I activity

In order of falling activity at 0.025 µM:
1. CCCOc1ccc(Cn2cnc3ccccc32)cc1 [Compound 7355741]  109%
2. Cc1ccccc1OCCCCn1cnc2ccccc21 [Compound 7732524]  85.2%

Same assay, conditions: Dose 0.063 µM; read-out: B. taurus mitochondrial complex I activity

In order of falling activity at 0.063 µM:
1. Cc1ccccc1OCCCCn1cnc2ccccc21 [Compound 7732524]  72.1%
2. CCCOc1ccc(Cn2cnc3ccccc32)cc1 [Compound 7355741]  57.4%

Same assay, conditions: Dose 0.125 µM; read-out: B. taurus mitochondrial complex I activity

In order of rising activity at 0.125 µM:
1. Cc1ccccc1OCCCCn1cnc2ccccc21 [Compound 7732524]  69.1%
2. CCCOc1ccc(Cn2cnc3ccccc32)cc1 [Compound 7355741]  101%

Same assay, conditions: Dose 0.313 µM; read-out: B. taurus mitochondrial complex I activity

In order of falling activity at 0.313 µM:
1. CCCOc1ccc(Cn2cnc3ccccc32)cc1 [Compound 7355741]  97.1%
2. Cc1ccccc1OCCCCn1cnc2ccccc21 [Compound 7732524]  48.9%

Same assay, conditions: Dose 0.625 µM; read-out: B. taurus mitochondrial complex I activity

In order of rising activity at 0.625 µM:
1. Cc1ccccc1OCCCCn1cnc2ccccc21 [Compound 7732524]  30.4%
2. CCCOc1ccc(Cn2cnc3ccccc32)cc1 [Compound 7355741]  86%

Same assay, conditions: Dose 1.5 µM; read-out: B. taurus mitochondrial complex I activity

In order of rising activity at 1.5 µM:
1. Cc1ccccc1OCCCCn1cnc2ccccc21 [Compound 7732524]  15.7%
2. CCCOc1ccc(Cn2cnc3ccccc32)cc1 [Compound 7355741]  75.9%

Same assay, conditions: Dose 3 µM; read-out: B. taurus mitochondrial complex I activity

In order of rising activity at 3 µM:
1. Cc1ccccc1OCCCCn1cnc2ccccc21 [Compound 7732524]  9.12%
2. CCCOc1ccc(Cn2cnc3ccccc32)cc1 [Compound 7355741]  37%

Same assay, conditions: Dose 15 µM; read-out: B. taurus mitochondrial complex I activity

In order of falling activity at 15 µM:
1. CCCOc1ccc(Cn2cnc3ccccc32)cc1 [Compound 7355741]  13.2%
2. Cc1ccccc1OCCCCn1cnc2ccccc21 [Compound 7732524]  0.75%

Same assay, conditions: Dose 37.5 µM; read-out: B. taurus mitochondrial complex I activity

In order of rising activity at 37.5 µM:
1. CCCOc1ccc(Cn2cnc3ccccc32)cc1 [Compound 7355741]  1.26%
2. Cc1ccccc1OCCCCn1cnc2ccccc21 [Compound 7732524]  1.46%

Same assay, conditions: Dose 75 µM; read-out: B. taurus mitochondrial complex I activity

In order of falling activity at 75 µM:
1. CCCOc1ccc(Cn2cnc3ccccc32)cc1 [Compound 7355741]  2.32%
2. Cc1ccccc1OCCCCn1cnc2ccccc21 [Compound 7732524]  1.41%

Same assay, conditions: in vitro complex I dose response on B. taurus mitochondria; average of at least two biological replicates; fit in R (DRC); read-out: IC50 B. taurus complex I

Compound `Cc1nc2ccccc2n1Cc1ccc(Br)cc1` [Compound 5567167] has an IC50 of 0.21 µM.

Same assay, conditions: log10 of IC50 in µM; B. taurus mitochondria

In order of falling “Log IC50 B. taurus complex I” value:
1. CCCOc1ccc(Cn2cnc3ccccc32)cc1 [Compound 7355741]  0.49 µM
2. Cc1ccccc1OCCCCn1cnc2ccccc21 [Compound 7732524]  -0.51 µM
3. Cc1nc2ccccc2n1Cc1ccc(Br)cc1 [Compound 5567167]  -0.68 µM
